target: T1, human NK1 receptor (Homo sapiens, UniProt P25103); test: Affinity for the NK1 receptor, [3H]substance P displacement binding assay; details: affinity to the NK-1 receptor; human NK1 receptors in CHO cells; [3H]substance P 0.6 nM; 60 min at room temperature
T1 construct: expressed in transfected cells; host or cells: CHO cells infected using the Semliki virus expression system; membrane suspension
Experimental: The affinity of test compounds for the NK1 receptor was evaluated at human NK1 receptors in CHO cells infected with the human NK1 receptor (using the Semliki virus expression system) and radiolabelled with [^3H]substance P (final concentration 0.6 nM). Binding assays were performed in HEPES buffer (50 mM, pH 7.4) containing BSA (0.04%) leupeptin (8 μg/ml), MnCl2 (3 mM) and phosphoramidon (2 μM). Binding assays consisted of 250 μl of membrane suspension (1.25×10^5 cells/assay tube), […] of displacing agent and 125 μl of [^3H]substance P. Displacement curves were determined with at least seven concentrations of the compound. The assay tubes were incubated for 60 min at room temperature after which time the tube contents were rapidly filtered under vacuum through GF/C filters presoaked for 60 min with PEI (0.3%) with 2×2 ml washes of HEPES buffer (50 mM, pH 7.4). The radioactivity retained on the filters was measured by scintillation counting. All assays were performed in triplicate in at least 2 separate experiments.

T1 sequence (P25103 whole entry): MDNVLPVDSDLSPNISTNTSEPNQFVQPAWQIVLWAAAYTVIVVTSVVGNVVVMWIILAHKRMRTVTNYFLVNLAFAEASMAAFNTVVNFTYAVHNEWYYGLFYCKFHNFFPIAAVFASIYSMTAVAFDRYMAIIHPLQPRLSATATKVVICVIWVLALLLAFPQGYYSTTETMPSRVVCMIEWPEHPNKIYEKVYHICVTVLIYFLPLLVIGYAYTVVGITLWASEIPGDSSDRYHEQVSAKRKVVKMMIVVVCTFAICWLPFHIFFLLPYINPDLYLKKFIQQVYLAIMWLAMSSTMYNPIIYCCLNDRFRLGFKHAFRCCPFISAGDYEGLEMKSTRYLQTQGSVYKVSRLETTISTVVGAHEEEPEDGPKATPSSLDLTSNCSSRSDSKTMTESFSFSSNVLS

| Compound | Ki [nM] | pKi |
| --- | --- | --- |
| Cc1cc(C)cc(CN(C)C(=O)c2cnc(N3CCN(C)CC3)nc2Oc2ccccc2C)c1 [Example 15, 2-(4-Methyl-piperazin-1-yl)-4-o-tolyloxy-pyrimidine-5-carboxylic acid (3,5-dimethyl-benzyl)-methyl-amide] | 28.2 | – |
| CSc1ncc(C(=O)N(C)Cc2cc(C(F)(F)F)cc(C(F)(F)F)c2)c(Oc2ccccc2)n1 [Example 23, 2-Methylsulfanyl-4-phenoxy-pyrimidine-5-carboxylic acid (3,5-bis-trifluoromethyl-benzyl)-methyl-amide] | 97.7 | – |
| Cc1ccccc1Oc1nc(OCCN2CCOCC2)ncc1N(C)C(=O)C(C)(C)c1cc(C(F)(F)F)cc(C(F)(F)F)c1 [Example 52, 2-(3,5-Bis-trifluoromethyl-phenyl)-N-methyl-N-[2-(2-morpholin-4-yl-ethoxy)-4-o-tolyloxy-pyrimidin-5-yl]-isobutyramide] | 0.794 | – |
| Cc1ccccc1Oc1nc(N2CCN(C)CC2)ncc1C(=O)N(C)Cc1cc(C(F)(F)F)cc(C(F)(F)F)c1 [Example 4, 2-(4-Methyl-piperazin-1-yl)-4-o-tolyloxy-pyrimidine-5-carboxylic acid (3,5-bis-trifluoromethyl-benzyl)-methyl-amide] | 2.88 | – |
| CSc1ncc(C(=O)N(C)Cc2cc(C(F)(F)F)cc(C(F)(F)F)c2)c(Oc2ccccc2C)n1 [Example 1, 2-Methylsulfanyl-4-o-tolyloxy-pyrimidine-5-carboxylic acid (3,5-bis-trifluoromethyl-benzyl)-methyl-amide] | 41.7 | – |
| COc1cc(CN(C)C(=O)c2cnc(N3CCN(C)CC3)nc2Oc2ccccc2C)cc(OC)c1 [Example 11, 2-(4-Methyl-piperazin-1-yl)-4-o-tolyloxy-pyrimidine-5-carboxylic acid (3,5-dimethoxy-benzyl)-methyl-amide] | 170 | – |
| 4-(2-Methoxy-phenoxy)-2-(4-methyl-piperazin-1-yl)-pyrimidine-5-carboxylic acid (3,5-bis-trifluoromethyl-benzyl)-methyl-amide [Example 29] | – | 6.50 |
| Cc1ccccc1Oc1nc(-c2ccccc2)ncc1N(C)C(=O)C(C)(C)c1cc(C(F)(F)F)cc(C(F)(F)F)c1 [Example 73, 2-(3,5-Bis-trifluoromethyl-phenyl)-N-methyl-N-(2-phenyl-4-o-tolyloxy-pyrimidin-5-yl)-isobutyramide] | 32.4 | – |
| Cc1ccccc1Oc1nc(N2CCSCC2)ncc1C(=O)N(C)Cc1cc(C(F)(F)F)cc(C(F)(F)F)c1 [Example 44, 2-Thiomorpholin-4-yl-4-o-tolyloxy-pyrimidine-5-carboxylic acid (3,5-bis-trifluoromethyl-benzyl)-methyl-amide] | 20 | – |
| Cc1ccccc1Oc1nc(N2CCN(C)CC2)ncc1C(=O)NCc1cc(Cl)cc(Cl)c1 [Example 19, 2-(4-Methyl-piperazin-1-yl)-4-o-tolyloxy-pyrimidine-5-carboxylic acid 3,5-dichloro-benzylamide] | 195 | – |
| Cc1ccccc1Oc1nc(-c2ccncc2)ncc1C(=O)N(C)Cc1cc(C(F)(F)F)cc(C(F)(F)F)c1 [Example 39, 2-Pyridin-4-yl-4-o-tolyloxy-pyrimidine-5-carboxylic acid (3,5-bis-trifluoromethyl-benzyl)-methyl-amide] | 16.2 | – |
| Cc1ccccc1Oc1nc(OCCN2CCOCC2)ncc1C(=O)N(C)Cc1cc(C(F)(F)F)cc(C(F)(F)F)c1 [Example 7, 2-(2-Morpholin-4-yl-ethoxy)-4-o-tolyloxy-pyrimidine-5-carboxylic acid (3,5-bis-trifluoromethyl-benzyl)-methyl-amide] | 4.68 | – |
| CN(C)CCCOc1ncc(N(C)C(=O)C(C)(C)c2cc(C(F)(F)F)cc(C(F)(F)F)c2)c(Oc2ccc(F)cc2)n1 [Example 63, 2-(3,5-Bis-trifluoromethyl-phenyl)-N-[2-(3-dimethylamino-propoxy)-4-(4-fluoro-phenoxy)-pyrimidin-5-yl]-N-methyl-isobutyramide] | 9.55 | – |
| Cc1ccccc1Oc1nc(N2CCN(C)CC2)ncc1N(C)C(=O)C(C)(C)c1cc(C(F)(F)F)cc(C(F)(F)F)c1 [Example 49, 2-(3,5-Bis-trifluoromethyl-phenyl)-N-methyl-N-[2-(4-methyl-piperazin-1-yl)-4-o-tolyloxy-pyrimidin-5-yl]-isobutyramide] | 0.912 | – |
